Test results taken from patent US9834558B2, “Substituted bridged urea analogs as sirtuin modulators” (GLAXOSMITHKLINE LLC, priority 2013, dated 2017).

What follows are compounds tested against T1, SIRT1 (Homo sapiens, UniProt Q96EB6) (assay: Trp mass spectrometry assay of SIRT1 activation). Conditions: Trp mass spectrometry assay; EC1.5 = concentration of test compound that results in 150% activation of SIRT1.
T1 sequence (Q96EB6 1-747): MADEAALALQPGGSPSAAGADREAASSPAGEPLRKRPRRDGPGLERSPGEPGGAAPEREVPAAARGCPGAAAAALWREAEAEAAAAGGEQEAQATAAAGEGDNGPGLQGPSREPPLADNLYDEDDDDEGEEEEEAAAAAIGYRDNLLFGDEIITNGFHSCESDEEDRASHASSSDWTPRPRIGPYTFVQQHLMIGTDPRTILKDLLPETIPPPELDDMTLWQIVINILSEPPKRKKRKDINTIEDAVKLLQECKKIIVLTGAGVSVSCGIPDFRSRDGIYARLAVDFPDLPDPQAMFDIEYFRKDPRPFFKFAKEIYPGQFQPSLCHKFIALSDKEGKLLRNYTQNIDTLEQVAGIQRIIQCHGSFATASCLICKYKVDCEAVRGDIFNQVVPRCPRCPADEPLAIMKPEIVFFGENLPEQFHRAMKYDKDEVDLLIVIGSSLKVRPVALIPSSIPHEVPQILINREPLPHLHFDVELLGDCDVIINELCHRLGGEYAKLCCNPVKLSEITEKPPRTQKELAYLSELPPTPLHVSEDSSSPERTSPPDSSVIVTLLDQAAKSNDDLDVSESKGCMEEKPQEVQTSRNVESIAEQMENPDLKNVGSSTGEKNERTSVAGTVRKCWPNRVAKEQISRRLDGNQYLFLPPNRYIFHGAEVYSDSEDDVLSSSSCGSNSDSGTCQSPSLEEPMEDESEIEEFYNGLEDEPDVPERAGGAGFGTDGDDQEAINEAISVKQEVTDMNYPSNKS
Assay type: biochemical
Summary of the method: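 N-terminal His-tagged human SIRT1 (10 nM, E. coli BL21(DE3)) with 0.5 μM Ac-RHKK(Ac)W-NH2 peptide and 120 μM βNAD+, 25 min at 25 °C in HEPES pH 7.5, formic acid stop. OAADPR or deacetylated peptide quantified by mass spectrometry; EC1.5 (50% activity increase over control) and Percent Maximum Activation reported.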

Structure (SMILES) | Tryp AVG EC1.5 (μM)
Cc1cncc(-c2ccc3c(n2)N(C(=O)Nc2ccccn2)[C@H]2CCCN3C2)c1 [Example 504] | A (A (EC1.5<1 μM))
Cc1ccncc1-c1ccc2c(n1)N(C(=O)Nc1ccccn1)[C@H]1CCCN2C1 [Example 505] | C (C (EC1.5>25 μM))
Cc1ccc(-c2ccc3c(n2)N(C(=O)Nc2nc(C)c(C)s2)[C@H]2CCCN3C2)cn1 [Example 506] | A (A (EC1.5<1 μM))
Cc1cncc(-c2ccc3c(n2)N(C(=O)Nc2nc(C)c(C)s2)[C@H]2CCCN3C2)c1 [Example 507] | A (A (EC1.5<1 μM))
Cc1ccncc1-c1ccc2c(n1)N(C(=O)Nc1nc(C)c(C)s1)[C@H]1CCCN2C1 [Example 508] | C (C (EC1.5>25 μM))
Cc1cncc(-c2ccc3c(n2)N(C(=O)Nc2cncc(F)c2)[C@H]2CCCN3C2)c1 [Example 509] | A (A (EC1.5<1 μM))
Cc1ccncc1-c1ccc2c(n1)N(C(=O)Nc1cncc(F)c1)[C@H]1CCCN2C1 [Example 510] | B (B (EC1.5 1-25 μM))
COc1cc(NC(=O)N2c3nc(-c4cnccc4C)ccc3N3CCC[C@H]2C3)ncn1 [Example 511] | C (C (EC1.5>25 μM))
Cc1cncc(-c2ccc3c(n2)N(C(=O)Nc2cnccn2)[C@H]2CCCN3C2)c1 [Example 512] | B (B (EC1.5 1-25 μM))
Cc1ccncc1-c1ccc2c(n1)N(C(=O)Nc1cnccn1)[C@H]1CCCN2C1 [Example 513] | C (C (EC1.5>25 μM))
Cc1ccc(-c2ccc3c(n2)N(C(=O)Nc2cccnc2)[C@H]2CCCN3C2)cn1 [Example 514] | B (B (EC1.5 1-25 μM))
Cc1cncc(-c2ccc3c(n2)N(C(=O)Nc2cccnc2)[C@H]2CCCN3C2)c1 [Example 515] | A (A (EC1.5<1 μM))
Cc1ccncc1-c1ccc2c(n1)N(C(=O)Nc1cccnc1)[C@H]1CCCN2C1 [Example 516] | B (B (EC1.5 1-25 μM))
Cc1cncc(-c2ccc3c(n2)N(C(=O)Nc2ccncn2)[C@H]2CCCN3C2)c1 [Example 517] | A (A (EC1.5<1 μM))
Cc1ccncc1-c1ccc2c(n1)N(C(=O)Nc1ccncn1)[C@H]1CCCN2C1 [Example 518] | C (C (EC1.5>25 μM))
Cc1cncc(-c2ccc3c(n2)N(C(=O)Nc2cccnn2)[C@H]2CCCN3C2)c1 [Example 519] | A (A (EC1.5<1 μM))
Cc1ccncc1-c1ccc2c(n1)N(C(=O)Nc1cccnn1)[C@H]1CCCN2C1 [Example 520] | C (C (EC1.5>25 μM))
O=C(Nc1cncc(F)c1)N1c2nc(-c3cccc(Cl)c3)ccc2N2CCC1CC2 [Example 521] | B (B (EC1.5 1-25 μM))
COc1cc(NC(=O)N2c3nc(-c4cccc(Cl)c4)ccc3N3CCC2CC3)ncn1 [Example 522] | B (B (EC1.5 1-25 μM))
COc1cc(NC(=O)N2c3nc(-c4cccc(Cl)c4)ccc3N3CCC2CC3)nc(OC)n1 [Example 523] | A (A (EC1.5<1 μM))
Cn1nccc1-c1ccc2c(n1)N(C(=O)Nc1cccnc1)[C@H]1CCN2C1 [Example 524] | B (B (EC1.5 1-25 μM))
Cc1n[nH]c(C)c1-c1ccc2c(n1)N(C(=O)Nc1cccnc1)[C@H]1CCN2C1 [Example 525] | B (B (EC1.5 1-25 μM))
O=C(Nc1cccnc1)N1c2nc(-c3cncc(Cl)c3)ccc2N2CC[C@H]1C2 [Example 526] | A (A (EC1.5<1 μM))
COc1cc(NC(=O)N2c3nc(-c4cccc(N5CCOCC5)c4)ccc3N3CCC[C@H]2C3)ncn1 [Example 528] | B (B (EC1.5 1-25 μM))
O=C(Nc1ccncn1)N1c2nc(-c3cccc(N4CCOCC4)c3)ccc2N2CCC[C@H]1C2 [Example 529] | B (B (EC1.5 1-25 μM))
O=C(O)c1cc(NC(=S)NCc2ccc(NC(=O)N3c4nc(-c5cccc(C(F)(F)F)c5)ccc4N4CC[C@H]3C4)cc2)ccc1-c1c2ccc(=O)cc-2oc2cc(O)ccc12 [Example 530] | A (A (EC1.5<1 μM))

Structure (SMILES) | Tryp AVG EC1.5 (μM)
Cc1c(-c2ccc3c(n2)C(C(=O)Nc2ccccn2)[C@H]2CCN3C2)cnn1C (stereo partly shown) [Example 531] | B (B (EC1.5 1-25 μM))
Cc1c(-c2ccc3c(n2)C(C(=O)Nc2cnccn2)[C@H]2CCN3C2)cnn1C (stereo partly shown) [Example 532] | B (B (EC1.5 1-25 μM))
O=C(Nc1ccccn1)N1c2nc(-c3cccc(Cl)c3)ccc2N2CCC1CC2 [Example 533] | B (B (EC1.5 1-25 μM))
O=C(Nc1ccncn1)N1c2nc(-c3cccc(Cl)c3)ccc2N2CCC1CC2 [Example 534] | B (B (EC1.5 1-25 μM))
N#Cc1cncc(-c2ccc3c(n2)N(C(=O)Nc2cncc(F)c2)[C@H]2CCCN3C2)c1 [Example 535] | B (B (EC1.5 1-25 μM))
O=C(Nc1ccccn1)N1c2nc(-c3cccc(N4CCOCC4)c3)ccc2N2CCC[C@H]1C2 [Example 536] | B (B (EC1.5 1-25 μM))
Cc1nc(NC(=O)N2c3nc(-c4cccc(N5CCOCC5)c4)ccc3N3CCC[C@H]2C3)sc1C [Example 537] | B (B (EC1.5 1-25 μM))
O=C(Nc1cccnc1)N1c2nc(-c3cccc(N4CCOCC4)c3)ccc2N2CCC[C@H]1C2 [Example 538] | A (A (EC1.5<1 μM))
O=C(Nc1cccnn1)N1c2nc(-c3cccc(N4CCOCC4)c3)ccc2N2CCC[C@H]1C2 [Example 539] | B (B (EC1.5 1-25 μM))
Cc1cc(NC(=O)N2c3nc(-c4cccc(C(F)(F)F)c4)ccc3N3CC[C@H]2C3)cc(Br)n1 [Example 540] | A (A (EC1.5<1 μM))
O=C(Nc1ccnc(Br)c1)N1c2nc(-c3cccc(C(F)(F)F)c3)ccc2N2CC[C@H]1C2 [Example 541] | A (A (EC1.5<1 μM))
O=C(Nc1cncc(Br)c1)N1c2nc(-c3cccc(C(F)(F)F)c3)ccc2N2CC[C@H]1C2 [Example 542] | A (A (EC1.5<1 μM))
O=C(Nc1cnccn1)N1c2nc(-c3cccc(Cl)c3)ccc2N2CCC1CC2 [Example 543] | B (B (EC1.5 1-25 μM))
O=C(Nc1cccnc1)N1c2nc(-c3cncc(Cl)c3)ccc2N2CCC1CC2 [Example 544] | B (B (EC1.5 1-25 μM))
O=C(Nc1cncc(F)c1)N1c2nc(-c3cncc(Cl)c3)ccc2N2CCC1CC2 [Example 545] | B (B (EC1.5 1-25 μM))
O=C(CCCCCNC(=O)c1ccc(-c2c3ccc(=O)cc-3oc3cc(O)ccc23)c(C(=O)O)c1)NCc1ccc(NC(=O)N2c3nc(-c4cccc(C(F)(F)F)c4)ccc3N3CC[C@H]2C3)cc1 [Example 547] | C (C (EC1.5>25 μM))
CC1(CCC(=O)NCc2ccc(NC(=O)N3c4nc(-c5cccc(C(F)(F)F)c5)ccc4N4CC[C@H]3C4)cc2)N=N1 [Example 548] | B (B (EC1.5 1-25 μM))
O=C(Nc1cccnc1)N1c2nc(-c3cnn(-c4ccccc4)c3)ccc2N2CC[C@H]1C2 [Example 549] | B (B (EC1.5 1-25 μM))
O=C(Nc1cnccn1)N1c2nc(-c3cncc(Cl)c3)ccc2N2CCC1CC2 [Example 550] | B (B (EC1.5 1-25 μM))
O=C(Nc1ccccn1)N1c2nc(-c3cncc(Cl)c3)ccc2N2CCC1CC2 [Example 551] | B (B (EC1.5 1-25 μM))
COc1cc(NC(=O)N2c3nc(-c4cncc(Cl)c4)ccc3N3CCC2CC3)ncn1 [Example 552] | C (C (EC1.5>25 μM))
COc1cc(NC(=O)N2c3nc(-c4cncc(Cl)c4)ccc3N3CCC2CC3)nc(OC)n1 [Example 553] | B (B (EC1.5 1-25 μM))
Cc1nc(NC(=O)N2c3nc(-c4cncc(Cl)c4)ccc3N3CCC2CC3)sc1C [Example 554] | B (B (EC1.5 1-25 μM))
O=C(Nc1cnccn1)N1c2nc(-c3cncc(F)c3)ccc2N2CCC1CC2 [Example 555] | B (B (EC1.5 1-25 μM))
O=C(Nc1cccnc1)N1c2nc(-c3cncc(C(F)(F)F)c3)ccc2N2CC[C@H]1C2 [Example 556] | A (A (EC1.5<1 μM))
N#Cc1cncc(-c2ccc3c(n2)N(C(=O)Nc2ccccn2)[C@H]2CCCN3C2)c1 [Example 557] | A (A (EC1.5<1 μM))

Same assay, conditions: Trp mass spectrometry assay; percent maximum fold activation of SIRT1; read-out: Tryp % Fold Act

Structure (SMILES) | Emax
O=C(O)c1cc(NC(=S)NCc2ccc(NC(=O)N3c4nc(-c5cccc(C(F)(F)F)c5)ccc4N4CC[C@H]3C4)cc2)ccc1-c1c2ccc(=O)cc-2oc2cc(O)ccc12 [Example 530] | > 150%
Cc1c(-c2ccc3c(n2)C(C(=O)Nc2ccccn2)[C@H]2CCN3C2)cnn1C (stereo partly shown) [Example 531] | > 150%
Cc1c(-c2ccc3c(n2)C(C(=O)Nc2cnccn2)[C@H]2CCN3C2)cnn1C (stereo partly shown) [Example 532] | > 150%
